In patent publication US12403144B2, “HECT E3 ligase inhibitors and uses thereof” (IFOM FONDAZIONE ISTITUTO FIRC DI ONCOLOGIA MOLECOLARE, priority 2019, dated 2025):
Counter-ions that a name gives are not always drawn.

Each compound was assayed against T1, untagged HECT of NEDD4 wild-type (WT) (E3 ligase) (Homo sapiens, UniProt P46934) (assay: In vitro ubiquitination assay TR-FRET based (self-ubiquitination of NEDD4)). Details: at 11 μM; pre-incubated for 1 hour; AUC of 120 minutes kinetic; read-out: percentages of inhibition (NEDD4).
T1 construct: untagged HECT of NEDD4 wild-type (WT) (E3 ligase); made in house
T1 sequence (P46934 519-900 isoform P46934-4 limits assumed): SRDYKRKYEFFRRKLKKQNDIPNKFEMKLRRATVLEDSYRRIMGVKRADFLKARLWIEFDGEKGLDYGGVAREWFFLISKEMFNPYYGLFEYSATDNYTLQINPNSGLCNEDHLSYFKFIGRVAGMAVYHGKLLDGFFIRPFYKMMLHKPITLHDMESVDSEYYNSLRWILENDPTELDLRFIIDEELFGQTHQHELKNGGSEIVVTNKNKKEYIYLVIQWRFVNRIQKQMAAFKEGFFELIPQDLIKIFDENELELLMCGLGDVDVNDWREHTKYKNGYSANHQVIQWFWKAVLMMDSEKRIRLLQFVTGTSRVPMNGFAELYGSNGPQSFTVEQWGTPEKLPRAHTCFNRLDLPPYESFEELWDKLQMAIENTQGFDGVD
Assay type: biochemical
Procedure, shortened: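 Mix of E1, His-UBE2D3 and untagged NEDD4 HECT (final 30, 350, 50 nM) with Eu-cryptate/Cy5/unlabelled ubiquitin in pH 7.6 Tris buffer, compounds (100–0.005 μM dilution series) pre-incubated 1 h, then started with ATP. 665/620 nm TR-FRET followed 120 min; % inhibition from AUC versus DMSO, no-ATP background.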

| Compound | inhibition at 11 µM [%] |
| --- | --- |
| O=C(/C=C/CNCCCCN1c2ccccc2CCc2ccc(Cl)cc21)NOC1CCNCC1 [Compound 83, (E)-4-[4-(3-Chloro-10,11-dihydro-5H-dibenzo[b,f]azepin-5-yl)butylamino]-N-(4-piperidyloxy)-but-2-enamide dimaleate] | > 50 |
| CCOC(=O)/C=C/CNCCCCN1c2cc(Cl)ccc2C(=O)N(CCOCCOC)c2ccccc21 [Compound 86, Ethyl (E)-4-{[4-(3-chloro-10-[2-(2-methoxyethoxy)ethyl]-11-oxo-10,11-dihydro-5H-dibenzo[b,e][1,4]diazepin-5-yl)butyl]amino}but-2-enoate maleate] | > 50 |
| CCOC(=O)/C=C/CNCCCCN1c2cc(Cl)ccc2C(=O)N(CCOCCOCCOC)c2ccccc21 [Compound 87, Ethyl (E)-4-{[4-(3-chloro-10-[2-[2-(2-methoxyethoxy)ethoxy]ethyl]-11-oxo-10,11-dihydro-5H-dibenzo[b,e][1,4]diazepin-5-yl)butyl]amino}but-2-enoate maleate] | > 50 |
| C#CCOCCN1C(=O)c2ccc(Cl)cc2N(CCCCNC/C=C/C(=O)OCC)c2ccccc21 [Compound 88, Ethyl (E)-4-{[4-[3-chloro-10-[2-(prop-2-yn-1-yloxy)ethyl]-11-oxo-10,11-dihydro-5H-dibenzo[b,e][1,4]diazepin-5-yl)butyl]amino}but-2-enoate maleate] | > 50 |
| C#CCOC(=O)/C=C/CNCCCCN1c2ccccc2CCc2ccc(Cl)cc21 [Compound 91, Prop-2-yn-1-yl (E)-4-[4-(3-chloro-10,11-dihydro-5H-dibenzo[b,f]azepin-5-yl)butylamino]but-2-enoate maleate] | > 50 |
| C#CCOCCOC(=O)/C=C/CNCCCCN1c2ccccc2CCc2ccc(Cl)cc21 [Compound 92, 2-Prop-2-ynyloxy-ethyl (E)-4-[4-(3-chloro-10,11-dihydro-5H-dibenzo[b,f]azepin-5-yl)butylamino]but-2-enoate maleate] | > 50 |
| C#CCOc1ccc2c(c1)CCc1ccc(Cl)cc1N2CCCCNC/C=C/C(=O)OCC [Compound 100, Ethyl (E)-4-[4-(7-Chloro-2-prop-2-ynyloxy-10,11-dihydro-dibenzo[b,f]azepin-5-yl)-butylamino]-but-2-enoate maleate] | > 50 |
| CCOC(=O)/C=C/CNCCCCN1c2ccc(OCc3ccccc3)cc2CCc2ccc(Cl)cc21 [Compound 101, Ethyl (E)-4-[4-(2-benzyloxy-7-chloro-10,11-dihydro-dibenzo[b,f]azepin-5-yl)-butylamino]-but-2-enoate maleate] | < 30 |
| COCCOC(=O)/C=C/CNCCCCN1c2ccccc2CCc2ccc(Cl)cc21 [Compound 102, 2-methoxy-ethyl (E)-4-[4-(3-chloro-10,11-dihydro-dibenzo[b,f]azepin-5-yl)-butylamino]-but-2-enoate maleate] | > 50 |

Second part, the compound after the results:

| inhibition at 11 µM [%] | Compound |
| --- | --- |
| > 50 | C#CCOCCOc1ccc2c(c1)CCc1ccc(Cl)cc1N2CCCCN(C)C/C=C/C(=O)OC [Compound 89, Methyl (E)-4-{4-[7-chloro-2-(2-prop-2-ynoxyethoxy)-10,11-dihydro-5H-dibenzo[b,f]azepin-5-yl]-butyl-methyl-amino}-but-2-enoate maleate] |
| > 50 | C#CCOCCOc1ccc2c(c1)CCc1ccc(Cl)cc1N2CCCCN(C)C/C=C/C#N [Compound 90, (E)-4-{4-[7-chloro-2-(2-prop-2-ynoxyethoxy)-10,11-dihydro-5H-dibenzo[b,f]azepin-5-yl]butyl-methyl-amino}but-2-enenitrile maleate] |
| > 50 | COCCOCCOC(=O)/C=C/CNCCCCN1c2ccccc2CCc2ccc(Cl)cc21 [Compound 93, 2-(2-Methoxy-ethoxy)-ethyl (E)-4-[4-(3-chloro-10,11-dihydro-dibenzo[b,f]azepin-5-yl)-butylamino]but-2-enoate maleate] |
| > 50 | CN(C/C=C/C(=O)OCCOCCOCCOCCOCCOCCNC(=O)CCCC[C@@H]1SC[C@@H]2NC(=O)N[C@@H]21)CCCCN1c2ccccc2CCc2ccc(Cl)cc21 [Compound 95, 2-(2-{2-[2-(2-{2-[5-((3aS,4S,6aR)-2-Oxo-hexahydro-thieno[3,4-d]imidazol-4-yl)-pentanoylamino]-ethoxy}-ethoxy)-ethoxy]-ethoxy}-ethoxy)-ethyl (E)-4-{[4-(3-chloro-10,11-dihydro-dibenzo[b,f]azepin-5-yl)-butyl]-methyl-amino}but-2-enoate] |
| > 50 | CN(C/C=C/C(=O)OCCOCCOCCOCCOCCOCCOCCOCCNC(=O)CCCC[C@@H]1SC[C@@H]2NC(=O)N[C@@H]21)CCCCN1c2ccccc2CCc2ccc(Cl)cc21 [Compound 96, 2-(2-{2-[2-(2-{2-[2-(2-[5-((3aS,4S,6aR)-2-Oxo-hexahydro-thieno[3,4-d]imidazol-4-yl)-pentanoylamino]-ethoxy)-ethoxy]-ethoxy}-ethoxy)-ethoxy]-ethoxy}-ethoxy)-ethyl (E)-4-{[4-(3-chloro-10,11-dihydro-dibenzo[b,f]azepin-5-yl)-butyl]-methyl-amino} but-2-enoate] |
| > 50 | CCOC(=O)/C=C/CNCCCCN1c2ccc(OCCOC)cc2CCc2ccc(Cl)cc21 [Compound 97, Ethyl (E)-4-{4-[7-Chloro-2-(2-methoxy-ethoxy)-10,11-dihydro-5H-dibenzo[b,f]azepin-5-yl]-butylamino}-but-2-enoate maleate] |
| > 50 | CCOC(=O)/C=C/CNCCCCN1c2ccc(OCCOCCOC)cc2CCc2ccc(Cl)cc21 [Compound 98, Ethyl (E)-4-(4-{7-chloro-2-[2-(2-methoxy-ethoxy)-ethoxy]-10,11-dihydro-5H-dibenzo[b,f]azepin-5-yl}-butylamino)-but-2-enoate maleate] |
| > 50 | CN(C/C=C/C#N)CCCCN1c2ccc(OCCOCc3cn(CCOCCOCCOCCNC(=O)CCCC[C@@H]4SC[C@@H]5NC(=O)N[C@@H]54)nn3)cc2CCc2ccc(Cl)cc21 [Compound 99, 5-((3aS,4S,6aR)-2-Oxo-hexahydro-thieno[3,4-d]imidazol-4-yl)-(2-{2-[2-(2-{4-[2-(7-chloro-5-{4-[((E)-3-cyano-allyl)-methyl-amino]-butyl}-10,11-dihydro-5H-dibenzo[b,f]azepin-2-yloxy)-ethoxymethyl]-[1,2,3]triazol-1-yl}-ethoxy)-ethoxy]-ethoxy}-ethyl)pentanamide] |
